The compounds below were run on Dukin-Hartley guinea pigs (assay: Bronchodilating activity in vivo (Konzett and Rossler), histamine bronchospasm). Conditions: Cavia porcellus, iv, 5 min; I.V. histamine tested 5 minutes after injection of the product; effective dose for 50% inhibition; anaesthetized guinea pigs; read-out: Bronchospam ED50 at 5 min.
Parameters: species or system guinea pig
Experimental: The bronchodilating activity was measured in vivo by the method of Konzett H. and Rossler R. (Arch. Exp. Pathol. Pharmak., 1940, 195, p. 71 to 74) and Duhault J. et al. (Arzneim. Forsch./Drug. res., 1987, 37, p. 1353 to 1362).
Measurement of the bronchodilating activity:
Dukin-Hartley guinea pigs (400-500 g) are prepared according to the methodology described by Konzett and Rossler. The animals are anaesthetized by an intraperitoneal injection of urethane (1.5 g/kg) and a tracheotomy is prepared for artificial respiration (45 cycles/min; respiratory volume 10 ml/kg).
The animal is connected to a respiratory pump, which is adjusted to deliver a volume of 1 ml per 100 g of body weight of the guinea pig. It is connected to a recorder via a pressure sensor.
A catheter is placed in the jugular for the I.V. injections.
An I.V. injection of gallamine and propanolol is carried out. After stabilizing the pulmonary pressure for 30 minutes, an I.V. injection of histamine is carried out every 10 minutes until reproducibility is achieved; at that point, the test product is injected 10 minutes after the last spasm.

Structure (SMILES)	ED50
CC1(C)C=C(c2cccc[n+]2[O-])c2cc(F)c(F)cc2OC1 [Compound 114, 7,8-Difluoro-3,3-dimethyl-5-(2-pyridyl N-oxide) -2,3-dihydro-1-benzoxepine]	0.04 mg/kg
CC1(C)C=C(c2cccc[n+]2[O-])c2cc(Cl)ccc2OC1 [Compound 91, 7-Chloro-3,3-methyl-(2-pyridyl N-oxide)-2,3-dihydro-1-benzoxepine]	0.1 mg/kg
CC1(C)C=C(c2cccc[n+]2[O-])c2cc(C#N)ccc2OC1 [Compound 104, 7-Cyano-3,3-dimethyl-5-(2-pyridyl N-oxide)-2,3-dihydro-1-benzoxepine]	0.038 mg/kg
CC1(C)C=C(c2cccc[n+]2[O-])c2cc(C(F)(F)F)ccc2OC1 [Compound 100, 3,3-Dimethyl-5-(2-pyridyl N-oxide)-7-trifluoromethyl-2,3-dihydro-1-benzoxepine]	0.069 mg/kg
Cc1cc2c(cc1C#N)OCC(C)(C)C=C2c1cccc[n+]1[O-] [Compound 119]	0.31 mg/kg
CC1(C)C=C(c2cccc[n+]2[O-])c2cc(C#N)ccc2CC1 [Compound 109, 8-Cyano-3,3-dimethyl-1-(2-pyridyl N-oxide)-4,5-dihydro-3H-benzo [f]cycloheptane]	0.086 mg/kg
Cc1cc2c(cc1C#N)C(c1cccc[n+]1[O-])=CC(C)(C)CO2 [Compound 118, 7-Cyano-3,3,8-trimethyl-5-(2-pyridyl N-oxide)-2,3-dihydro-1-benzoxepine]	0.15 mg/kg
CC1(C)C=C(c2cccc[n+]2[O-])c2cc(Cl)c(Cl)cc2OC1 [Compound 111, 7,8-Dichloro-3,3-dimethyl-5-(2-pyridyl N-oxide)-2,3-dihydro-1-benzoxepine]	0.049 mg/kg

Same assay, conditions: Cavia porcellus, iv, 0.25 h; I.V. histamine tested 15 minutes after injection of the product; effective dose for 50% inhibition; anaesthetized guinea pigs; read-out: Bronchospam ED50 at 15 min

Structure (SMILES)	ED50
CC1(C)C=C(c2cccc[n+]2[O-])c2cc(F)c(F)cc2OC1 [Compound 114, 7,8-Difluoro-3,3-dimethyl-5-(2-pyridyl N-oxide) -2,3-dihydro-1-benzoxepine]	0.3 mg/kg
CC1(C)C=C(c2cccc[n+]2[O-])c2cc(C#N)ccc2OC1 [Compound 104, 7-Cyano-3,3-dimethyl-5-(2-pyridyl N-oxide)-2,3-dihydro-1-benzoxepine]	0.21 mg/kg
CC1(C)C=C(c2cccc[n+]2[O-])c2cc(C(F)(F)F)ccc2OC1 [Compound 100, 3,3-Dimethyl-5-(2-pyridyl N-oxide)-7-trifluoromethyl-2,3-dihydro-1-benzoxepine]	0.101 mg/kg
Cc1cc2c(cc1C#N)OCC(C)(C)C=C2c1cccc[n+]1[O-] [Compound 119]	0.53 mg/kg
CC1(C)C=C(c2cccc[n+]2[O-])c2cc(C#N)ccc2CC1 [Compound 109, 8-Cyano-3,3-dimethyl-1-(2-pyridyl N-oxide)-4,5-dihydro-3H-benzo [f]cycloheptane]	0.331 mg/kg
Cc1cc2c(cc1C#N)C(c1cccc[n+]1[O-])=CC(C)(C)CO2 [Compound 118, 7-Cyano-3,3,8-trimethyl-5-(2-pyridyl N-oxide)-2,3-dihydro-1-benzoxepine]	0.2 mg/kg
CC1(C)C=C(c2cccc[n+]2[O-])c2cc(Cl)c(Cl)cc2OC1 [Compound 111, 7,8-Dichloro-3,3-dimethyl-5-(2-pyridyl N-oxide)-2,3-dihydro-1-benzoxepine]	0.1 mg/kg

Reference: patent publication US5652252A, “Benzocycloheptenes” (Merck Patent Gesellschaft Mit Beschrankter Haftung, priority 1992, dated 1997)
